PubChem BioAssay (NCI)
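Values below derive from 48-hour exposures of cells grown in 96-well plates, with endpoints linearly interpolated between the two concentrations bracketing the appropriate inhibition level. GI50 = concentration required for 50% inhibition of growth. TGI is the concentration that stops growth completely.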

Assays:
Experiment in all cases: inhibition of tumour cell growth, NCI panel, 48 h
BT-549 breast = tested on: BT-549 breast
EKVX NSCLC = tested on: EKVX NSCLC
IGROV1 ovarian = tested on: IGROV1 ovarian
ACHN renal = tested on: ACHN renal
HCT-116 colon = tested on: HCT-116 colon
DU-145 prostate = tested on: DU-145 prostate
SF-268 CNS = tested on: SF-268 CNS
SNB-75 CNS = tested on: SNB-75 CNS
MDA-MB-231 breast = tested on: MDA-MB-231 breast
U251 CNS = tested on: U251 CNS
A498 renal = tested on: A498 renal
OVCAR-5 ovarian = tested on: OVCAR-5 ovarian
HCC-2998 colon = tested on: HCC-2998 colon
HT29 colon = tested on: HT29 colon
SK-MEL-2 melanoma = tested on: SK-MEL-2 melanoma
HS 578T breast = tested on: HS 578T breast
RPMI-8226 leukemia = tested on: RPMI-8226 leukemia
SK-MEL-5 melanoma = tested on: SK-MEL-5 melanoma
UO-31 renal = tested on: UO-31 renal
NCI-H460 lung = tested on: NCI-H460 lung
HOP-92 NSCLC = tested on: HOP-92 NSCLC
COLO 205 colon = tested on: COLO 205 colon
HL-60(TB) leukemia = tested on: HL-60(TB) leukemia
HCT-15 colon = tested on: HCT-15 colon
SR leukemia = tested on: SR leukemia
SN12C renal = tested on: SN12C renal
K-562 leukemia = tested on: K-562 leukemia
SF-539 CNS = tested on: SF-539 CNS
MCF7 breast = tested on: MCF7 breast
OVCAR-8 ovarian = tested on: OVCAR-8 ovarian
CAKI-1 renal = tested on: CAKI-1 renal
HOP-62 NSCLC = tested on: HOP-62 NSCLC
KM12 colon = tested on: KM12 colon
PC-3 prostate = tested on: PC-3 prostate
NCI-H23 lung = tested on: NCI-H23 lung
TK-10 renal = tested on: TK-10 renal
SK-MEL-28 melanoma = tested on: SK-MEL-28 melanoma
SF-295 CNS = tested on: SF-295 CNS
OVCAR-3 ovarian = tested on: OVCAR-3 ovarian
MDA-MB-468 breast = tested on: MDA-MB-468 breast
T-47D breast = tested on: T-47D breast
SNB-19 CNS = tested on: SNB-19 CNS
786-0 renal = tested on: 786-0 renal
MALME-3M melanoma = tested on: MALME-3M melanoma
SK-OV-3 ovarian = tested on: SK-OV-3 ovarian
UACC-62 melanoma = tested on: UACC-62 melanoma
UACC-257 melanoma = tested on: UACC-257 melanoma
A549 NSCLC = tested on: A549 NSCLC
SW-620 colon = tested on: SW-620 colon
NCI-H226 lung = tested on: NCI-H226 lung
CCRF-CEM leukemia = tested on: CCRF-CEM leukemia
MDA-MB-435 = tested on: MDA-MB-435
NCI-H522 lung = tested on: NCI-H522 lung
M14 melanoma = tested on: M14 melanoma
MOLT-4 leukemia = tested on: MOLT-4 leukemia
LOX IMVI melanoma = tested on: LOX IMVI melanoma
RXF 393 renal = tested on: RXF 393 renal
OVCAR-4 ovarian = tested on: OVCAR-4 ovarian

In the case of N#Cc1c(-c2ccc(Br)cc2)nc2n[nH]c(-c3ccc(Br)cc3)c2c1-c1ccc(C(F)(F)F)cc1, the GI50 (BT-549 breast) is reported as 2.56 µM, the TGI (BT-549 breast) is reported as 8.18 µM and the GI50 (EKVX NSCLC) is reported as 3.05 µM. It also gave a TGI (EKVX NSCLC) of 27.3 µM, a GI50 (IGROV1 ovarian) of 2.71 µM and a TGI (IGROV1 ovarian) of 15.4 µM. The GI50 (ACHN renal) was 3.26 µM, the TGI (ACHN renal) was 14.3 µM and the GI50 (HCT-116 colon) was 3.42 µM. For the same molecule, the TGI (HCT-116 colon) was 73.2 µM, the GI50 (DU-145 prostate) was 5.45 µM and the TGI (DU-145 prostate) was over 100 µM. It also gave a GI50 (SF-268 CNS) of 7.91 µM, a TGI (SF-268 CNS) of over 100 µM and a GI50 (SNB-75 CNS) of 12.6 µM. For the same molecule, the TGI (SNB-75 CNS) was 43.9 µM, the GI50 (MDA-MB-231 breast) was 5.37 µM and the TGI (MDA-MB-231 breast) was 19.3 µM. It also gave a GI50 (U251 CNS) of 6.23 µM, a TGI (U251 CNS) of 62.4 µM and a GI50 (A498 renal) of 15.1 µM. For the same molecule, the TGI (A498 renal) was 45.2 µM, the GI50 (OVCAR-5 ovarian) was 7.58 µM and the TGI (OVCAR-5 ovarian) was 26.9 µM. The GI50 (HCC-2998 colon) was 5.27 µM, the TGI (HCC-2998 colon) was 27.1 µM and the GI50 (HT29 colon) was 3.84 µM. It also gave a TGI (HT29 colon) of 35.7 µM, a GI50 (SK-MEL-2 melanoma) of 10.1 µM and a TGI (SK-MEL-2 melanoma) of 23.6 µM. It also gave a GI50 (HS 578T breast) of 10.2 µM, a TGI (HS 578T breast) of 49.1 µM and a GI50 (RPMI-8226 leukemia) of 2.35 µM. For the same molecule, the TGI (RPMI-8226 leukemia) was 10.4 µM, the GI50 (SK-MEL-5 melanoma) was 3.29 µM and the TGI (SK-MEL-5 melanoma) was 10.8 µM. The GI50 (UO-31 renal) was 2.07 µM, the TGI (UO-31 renal) was 14.9 µM and the GI50 (NCI-H460 lung) was 3.62 µM. For the same molecule, the TGI (NCI-H460 lung) was 19.4 µM, the GI50 (HOP-92 NSCLC) was 1.65 µM and the TGI (HOP-92 NSCLC) was 4.73 µM. The GI50 (COLO 205 colon) was 3.88 µM, the TGI (COLO 205 colon) was 15.9 µM and the GI50 (HL-60(TB) leukemia) was 2.03 µM. For the same molecule, the TGI (HL-60(TB) leukemia) was 6.13 µM, the GI50 (HCT-15 colon) was 3.29 µM and the TGI (HCT-15 colon) was 19.1 µM. It also gave a GI50 (SR leukemia) of 2.5 µM, a TGI (SR leukemia) of 7.71 µM and a GI50 (SN12C renal) of 3.3 µM. It also gave a TGI (SN12C renal) of 15.8 µM, a GI50 (K-562 leukemia) of 2.61 µM and a TGI (K-562 leukemia) of 10.3 µM. The GI50 (SF-539 CNS) was 5.35 µM, the TGI (SF-539 CNS) was 22.2 µM and the GI50 (MCF7 breast) was 3.13 µM. The TGI (MCF7 breast) was 24 µM, the GI50 (OVCAR-8 ovarian) was 12.5 µM and the TGI (OVCAR-8 ovarian) was over 100 µM. The GI50 (CAKI-1 renal) was 4.01 µM, the TGI (CAKI-1 renal) was 24.2 µM and the GI50 (HOP-62 NSCLC) was 14.1 µM. The TGI (HOP-62 NSCLC) was 44.7 µM, the GI50 (KM12 colon) was 4.4 µM and the TGI (KM12 colon) was 26.8 µM. For the same molecule, the GI50 (PC-3 prostate) was 1.95 µM, the TGI (PC-3 prostate) was 12.4 µM and the GI50 (NCI-H23 lung) was 4.31 µM. For the same molecule, the TGI (NCI-H23 lung) was over 100 µM, the GI50 (TK-10 renal) was 19.7 µM and the TGI (TK-10 renal) was 58.3 µM. The GI50 (SK-MEL-28 melanoma) was 6.79 µM, the TGI (SK-MEL-28 melanoma) was 26.3 µM and the GI50 (SF-295 CNS) was 2.61 µM. It also gave a TGI (SF-295 CNS) of 10.1 µM, a GI50 (OVCAR-3 ovarian) of 5.32 µM and a TGI (OVCAR-3 ovarian) of 34.3 µM. The GI50 (MDA-MB-468 breast) was 3.44 µM, the TGI (MDA-MB-468 breast) was 15.5 µM and the GI50 (T-47D breast) was 3.39 µM. It also gave a TGI (T-47D breast) of 93.9 µM, a GI50 (SNB-19 CNS) of 4.53 µM and a TGI (SNB-19 CNS) of 33.3 µM. The GI50 (786-0 renal) was 7.85 µM, the TGI (786-0 renal) was 28.1 µM and the GI50 (MALME-3M melanoma) was 2.34 µM. It also gave a TGI (MALME-3M melanoma) of 6.47 µM, a GI50 (SK-OV-3 ovarian) of 14.2 µM and a TGI (SK-OV-3 ovarian) of 69.1 µM. The GI50 (UACC-62 melanoma) was 2.61 µM, the TGI (UACC-62 melanoma) was 13.3 µM and the GI50 (UACC-257 melanoma) was 13.3 µM. For the same molecule, the TGI (UACC-257 melanoma) was 62.6 µM, the GI50 (A549 NSCLC) was 4.62 µM and the TGI (A549 NSCLC) was over 100 µM. The GI50 (SW-620 colon) was 4.39 µM, the TGI (SW-620 colon) was over 100 µM and the GI50 (NCI-H226 lung) was 3.07 µM. For the same molecule, the TGI (NCI-H226 lung) was 18 µM, the GI50 (CCRF-CEM leukemia) was 3.05 µM and the TGI (CCRF-CEM leukemia) was 13 µM. For the same molecule, the GI50 (MDA-MB-435) was 4.03 µM, the TGI (MDA-MB-435) was 21.4 µM and the GI50 (NCI-H522 lung) was 3.78 µM. For the same molecule, the TGI (NCI-H522 lung) was 36.9 µM, the GI50 (M14 melanoma) was 5.24 µM and the TGI (M14 melanoma) was 23.7 µM. For the same molecule, the GI50 (MOLT-4 leukemia) was 1.89 µM, the TGI (MOLT-4 leukemia) was 6.02 µM and the GI50 (LOX IMVI melanoma) was 3.45 µM. It also gave a TGI (LOX IMVI melanoma) of over 100 µM, a GI50 (RXF 393 renal) of 6.93 µM and a TGI (RXF 393 renal) of 28.4 µM. For the same molecule, the GI50 (OVCAR-4 ovarian) was 4.02 µM and the TGI (OVCAR-4 ovarian) was 25.6 µM.
